The values below come from ChEMBL document CHEMBL3507680, “University of Dundee, Gates Library screen for HepG2 cell viability”.

This data set is described as follows: Human HepG2 cell viability assay in 384 well format. Format: toxicity, cell-based. Further details: dose 125 nL, time 70.5 hour; concentration not given beside the values. Particulars: HepG2 cells, read-out: Inhibition.

On to `Cc1c[nH]nc1C1CCN(c2cnccn2)C1` (centres undefined), for which the cytotoxicity at 70.5 h worked out at 5.06%. `CNC(=O)CCc1cc(C)nc(C2CCN(c3cnccn3)CC2)c1`: the cytotoxicity at 70.5 h was determined as 0.777%. As to `CCN(CC)C(=O)CN1CCCC1c1nc(C)c2c(n1)N(C)C(=O)CC2` (centres undefined), the cytotoxicity at 70.5 h is -7.02%.

Consider `O=C(C1CC1)N1C[C@H]2CCCN(S(=O)(=O)c3cccc(F)c3)[C@H]2C1`, for which the cytotoxicity at 70.5 h was determined as 3.8%. In the case of `CSc1nnc(CNC(=O)Nc2ccccc2F)n1C`, the cytotoxicity at 70.5 h was -7.23%. The figure for `CCn1c(SC)nnc1C1CCN(C(=O)N2CCCC2)CC1` is -4.95%; for `CSc1nnc(C2CCN(C(=O)N3CCOCC3)CC2)n1C(C)C` it is 7.97%; for `CS(=O)(=O)c1cc(Cl)cnc1C1CCN(C(=O)C2CCCO2)CC1` (centres undefined) it is -5.11%. The same measure for `Cn1cc(C2=NOC(C(=O)NC3(c4ccccc4)CCCC3)C2)cn1` (centres undefined): -3.59%; for `Cc1ccc(S(=O)(=O)N2CC[C@@H]3C[C@H](NC(=O)c4n[nH]cc4Cl)[C@@H]32)cc1`: -1.23%; for `Cc1cnc(-c2nc(C3CCCN(Cc4cccs4)C3)no2)cn1` (centres undefined): 23.7%. On to `CC(C)C(=O)N1CCCC([C@@H]2C[C@H](C(F)F)n3ncnc3N2)C1` (some centres undefined), for which the cytotoxicity at 70.5 h is -3.96%.

`COCC(=O)N[C@@H]1CN(Cc2c[nH]nc2-c2cccs2)C[C@H]1O`: the cytotoxicity at 70.5 h is -2.93%. The same measure for `COc1ccc(CC(=O)N2CCN(Cc3ccco3)C[C@@H]2C)cc1`: -7.32%; for `COc1ccc(CC(=O)N2CCN(Cc3ccco3)C[C@@H]2C)cc1OC`: -3.94%. The same measure for `COc1ccccc1-c1ccc(C2CCCN(C(C)=O)C2)nc1` (centres undefined): -0.199%; for `c1cc(C2CN(C3CCCC3)C2)n[nH]1`: -1.02%. As to `CCN(Cc1ccncc1)c1cc(C2CCN2C(C)=O)nc(C)n1` (centres undefined), the cytotoxicity at 70.5 h is -1.55%. The same measure for `CC(=O)N1CCC(C)(c2cc(C(=O)NCC(C)(C)C)nc(C)n2)CC1`: 9.62%. The same measure for `Cc1nc(CN2CCCC(c3cnccn3)C2)cs1` (centres undefined): -2.76%; for `CC(C)c1cc(C(=O)N2CCC3(CCc4ccccc4C(=O)N3)C2)on1` (centres undefined): -2.23%; for `CC(NC(=O)CCn1c(=O)oc2ccccc21)c1ccccn1` (centres undefined): -2.59%.

For `Cc1cccc(-c2nccnc2C2CCCN(C)C2)c1C` (centres undefined), the cytotoxicity at 70.5 h was found to be 18.2%. Regarding `CC(=O)NCC(=O)N1CCCC1c1ccc(CN2CCOCC2)cn1` (centres undefined), the cytotoxicity at 70.5 h was -4.76%. For the molecule `CC(=O)N1CCCC1c1ccc(CN2CCOCC2)cn1` (centres undefined), the cytotoxicity at 70.5 h came out at 16.7%. As for `CC1(Cc2ccc(F)cc2)Cc2cc(C(=O)NCCO)ccc2O1` (centres undefined), the cytotoxicity at 70.5 h is -0.493%. Take `Cc1csc(NC(=O)C2(C)CN(C)CCO2)n1` (centres undefined): the cytotoxicity at 70.5 h was 1.56%. As for `O=C(c1cccnc1)N1CCCC(c2ccnc3nccn23)C1` (centres undefined), the cytotoxicity at 70.5 h worked out at 7.06%.

As to `Cc1c[nH]c(C2COCCN2C(=O)CCc2c(C)n[nH]c2C)n1` (centres undefined), the cytotoxicity at 70.5 h is -9.97%. `Cc1cc(N2CCCC2c2cnccn2)ncn1` (centres undefined): the cytotoxicity at 70.5 h was -5.35%. Turning to `CCc1nnc(Nc2cccc(C3CCN(CCO)CC3)n2)s1`, the cytotoxicity at 70.5 h is 7.17%. On to `Cc1c[nH]nc1C1CCN(S(=O)(=O)N(C)C)CC1`, for which the cytotoxicity at 70.5 h amounted to 0.689%. The figure for `CN(C)C(=O)C1CN(Cc2cscn2)CCN(S(C)(=O)=O)C1` (centres undefined) is 7.94%; for `CN1CCC(Cc2cc(Nc3ncccn3)ncn2)CC1` it is -4.15%; for `Cc1nn(C)cc1CN1CCC(C2Nc3ccccc3S(=O)(=O)N2)CC1` (centres undefined) it is -12.8%.

With `O=C(CCC1CCCC1)N1CCC(c2ncc3c(n2)CCNC3)CC1`, the cytotoxicity at 70.5 h came out at 11.5%. With `CN(CC1(O)CCCN(c2ccccn2)C1)C(=O)Cc1ccsc1` (centres undefined), the cytotoxicity at 70.5 h was -9.68%. Take `Cc1nc(NC2CCCC2)cc(C2CCN2C(=O)c2ccccc2)n1` (centres undefined): the cytotoxicity at 70.5 h came out at 14.2%. Turning to `CN1CCCC1c1cccc(Cc2ccccc2F)n1` (centres undefined), the cytotoxicity at 70.5 h was 0.232%. The figure for `c1cncc(C2=NOC3(CCN(Cc4c[nH]c5ccccc45)CC3)C2)c1` is 5.06%. With `c1ccc(C2=NOC3(CCN(Cc4c[nH]c5ccccc45)CC3)C2)cc1`, the cytotoxicity at 70.5 h was 11.1%. The figure for `CN1CC(=O)N(c2cccnc2)Cc2c(NC3CC3)ncnc21` is -0.235%. `CC(C)CN1CCCC(c2nc(O)c3cc(F)ccc3n2)C1` (centres undefined): the cytotoxicity at 70.5 h was 1.3%. The same measure for `Cc1ccc2nc(C3CCCN(CC(C)C)C3)nc(O)c2c1` (centres undefined): -2.98%; for `CCN1CCCC(c2nc(O)c3cc(C)ccc3n2)C1` (centres undefined): -8.23%. The figure for `O=C(c1ccc2c(c1)OCO2)N1CCC(C(=O)O)(c2ccccc2)CC1` is -11.1%; for `CC(C)C1=NOC2(CCN(S(C)(=O)=O)CC2)C1` it is -12.4%.

`COc1ccccc1-c1cc(C(=O)N2CCCC2)c2cnn(C)c2n1`: the cytotoxicity at 70.5 h is -5.55%. As for `NCCC(=O)N1CCC2(CC1)CN(C(=O)c1ccc(Cl)cc1)CCO2`, the cytotoxicity at 70.5 h is -12.1%. In the case of `NCCC(=O)N1CCC2(CC1)CN(C(=O)Cc1ccc(Cl)cc1)CCO2`, the cytotoxicity at 70.5 h is -14.3%.

Regarding `CN(C)C(=O)C1CCc2nnc(C(C)(C)C)n21` (centres undefined), the cytotoxicity at 70.5 h was -3.32%. In the case of `CN(C)C(=O)c1cc(-c2ccc(S(C)(=O)=O)cc2)c2cnn(C)c2n1`, the cytotoxicity at 70.5 h is -7.12%. With `Cc1cc(C(=O)NCc2ccc(F)cc2)c2c(C3CCNC3)noc2n1` (centres undefined), the cytotoxicity at 70.5 h is -7.85%. In the case of `CC1(C(=O)NCc2cc(F)cc(F)c2)CCOCC1`, the cytotoxicity at 70.5 h was -6.71%. Take `O=C(NC1CC1)C1CCc2nnc(C3CC3)n21` (centres undefined): the cytotoxicity at 70.5 h is -10.1%. The same measure for `O=C1CC2(CCN(C(=O)c3ccccn3)C2)Nc2ccccc2N1` (centres undefined): -14.7%; for `c1c[nH]c2nc(C3CCNC3)nc-2c1` (centres undefined): -17.5%. The figure for `COC(=O)CNC(=O)c1nc(-c2ccccc2OC)c2cnccn12` is -11.4%; for `O=C1NC2(Cc3ccccc31)CN(CC1CCOCC1)C2` it is 25.2%. As to `Cn1nc(C2CCNCC2)c2c(C(=O)NC3CC3)cc(C3CC3)nc21`, the cytotoxicity at 70.5 h stood at 15%. Take `Cn1nc(C2CCNC2)c2c(C(=O)NC3CC3)cc(C3CC3)nc21` (centres undefined): the cytotoxicity at 70.5 h is 17.5%.

Turning to `CC(=O)N1CC2(CCCN2Cc2ccc(Cl)cc2)Cc2ccccc21` (centres undefined), the cytotoxicity at 70.5 h worked out at 31.4%. With `CC(C)NC(=O)C1CCc2nnc(CNC(=O)c3ccc(Cl)cc3Cl)n21` (centres undefined), the cytotoxicity at 70.5 h was found to be 1.45%. Regarding `CN(C)C(=O)C1CCc2nnc(CNC(=O)c3ccc(Cl)cc3Cl)n21` (centres undefined), the cytotoxicity at 70.5 h was 2.11%. The figure for `CC(C)(C)CN1CCCC12Cc1ccccc1CNC2=O` (centres undefined) is -7.71%. As to `CC(C)CCN1CCCC12Cc1ccccc1CNC2=O` (centres undefined), the cytotoxicity at 70.5 h was -7.7%. In the case of `CS(=O)(=O)N1Cc2ccccc2CC2(CCN(Cc3ccncc3)C2)C1` (centres undefined), the cytotoxicity at 70.5 h is -9.23%. The same measure for `CC(=O)N1Cc2ccccc2CC2(CCCCN2C)C1` (centres undefined): 21.1%; for `CN1CCCCC12Cc1ccccc1CN(C(=O)C1CCCC1)C2` (centres undefined): -6.1%. As to `CS(=O)(=O)N1CC2(CCN(C3CCCCC3)C2)Cc2ccccc21` (centres undefined), the cytotoxicity at 70.5 h worked out at 0.278%. As for `CS(=O)(=O)N1CC2(CCN(CC3CCCCC3)CC2)Cc2ccccc21`, the cytotoxicity at 70.5 h was 29.9%.

For the molecule `CS(=O)(=O)N1CC2(CCN(CC3CCCCC3)C2)Cc2ccccc21` (centres undefined), the cytotoxicity at 70.5 h was -3.19%. For the molecule `O=C1Nc2ccccc2CN(CC2CCCC2)C12CCNC2` (centres undefined), the cytotoxicity at 70.5 h is -2.12%.

With `O=C(NC1CC1)c1cc(C2CC2)nc2onc(C3CCNCC3)c12`, the cytotoxicity at 70.5 h was -4.47%. For `COCCNC(=O)c1cc(C2CC2)nc2onc(C3CCNC3)c12` (centres undefined), the cytotoxicity at 70.5 h was -7.31%. Take `Cc1cc(C(=O)NCC(F)(F)F)c2c(C3CCNCC3)noc2n1`: the cytotoxicity at 70.5 h was determined as 25.3%. For `O=C(c1ccc(Cl)cc1)N1CCC(N2CCOC2=O)CC1`, the cytotoxicity at 70.5 h is -7.62%. As to `O=C(c1ccc(Cl)cc1)N1CCC(N2CCNC2=O)CC1`, the cytotoxicity at 70.5 h is -3.41%. On to `O=C(c1cscn1)N1CCC2(COc3ncccc3S(=O)(=O)N2)C1` (centres undefined), for which the cytotoxicity at 70.5 h was -3.8%.

For the molecule `CC(C)(C)C(=O)N1CCC2(CNS(=O)(=O)c3cnccc3O2)C1` (centres undefined), the cytotoxicity at 70.5 h is 41.2%. The same measure for `CC(C)NC(=O)N1CCCCC1c1nnc2n1CCNC2` (centres undefined): 20.4%. The same measure for `O=S1(=O)NCC2(CCCN(Cc3cccnc3)C2)Oc2ncccc21` (centres undefined): 26.5%.

With `CN1CCC2(CC1)Cc1ccccc1CN(C(=O)CN)C2`, the cytotoxicity at 70.5 h was determined as 24.5%. With `O=C1Nc2ccccc2CC12CCCN2Cc1ccc(C(F)(F)F)cc1` (centres undefined), the cytotoxicity at 70.5 h was found to be 6.34%. The figure for `CCN(CC(=O)NC)C(=O)c1csc(Cc2ccccc2)n1` is -2.3%; for `O=C(NC1CCN(Cc2ccc(F)cc2)CC1)c1ccc2c(c1)CCC2` it is -6.88%; for `Cc1cc(C(=O)N2CCNC(=O)CC2)c(C)n1CC(F)(F)F` it is 23.5%. `CC(C)(C)c1noc(CCCC(=O)N2CCNC(=O)CC2)n1`: the cytotoxicity at 70.5 h is -6.5%. The same measure for `Cc1noc(CCCC(=O)N2CCNC(=O)C2)n1`: -9.21%. For `CC(C)C1C(=O)NCCN1C(=O)CCCc1nc(C(C)(C)C)no1` (centres undefined), the cytotoxicity at 70.5 h is -3.75%. On to `CN(C)[C@@H]1CN(Cc2cccnc2)C[C@H]1c1cn(C)c2ccccc12`, for which the cytotoxicity at 70.5 h is -2.36%. The same measure for `Cc1nn(C)cc1S(=O)(=O)NCC(c1ccccc1)N1CCCCCC1` (centres undefined): 17.9%.

Regarding `Cc1cnc(-c2nc(C3CCCN(Cc4ccccc4C)C3)no2)cn1` (centres undefined), the cytotoxicity at 70.5 h amounted to 21.7%. Consider `Cc1cccc(CNc2cc(C3CCCNC3)ccn2)n1` (centres undefined), for which the cytotoxicity at 70.5 h is -7.94%. The same measure for `Cc1noc2nc(C3CCN(CC4=CCCOC4)CC3)cc(C(F)F)c12`: -7.18%; for `Cc1ncc(CN2CCCC(O)(c3ccc(F)cc3)CC2)n1C` (centres undefined): -5.42%; for `Cc1nc[nH]c1CN(Cc1ccccc1F)C1CC(C)(C)NC(C)(C)C1`: -2.5%. With `CC1(C)CC(N(Cc2ccccc2)Cc2ncc[nH]2)CC(C)(C)N1`, the cytotoxicity at 70.5 h is -1.78%. In the case of `CC1(C)CC(N(Cc2ccccc2)Cc2c[nH]cn2)CC(C)(C)N1`, the cytotoxicity at 70.5 h was 2.11%.
